Assay results taken from article PMC3478992, “Cloning and characterization of a novel 2-ketoisovalerate reductase from the beauvericin producer Fusarium proliferatum LF061” (BMC Biotechnology, 2012).

Biological target: T1, KivRFp (2-ketoisovalerate reductase) (Fusarium proliferatum, UniProt I3VQI5)
T1 construct: full length, 452 residues, 52 kDa, N-terminal His-tag (pET28a), codon-optimised synthetic gene, E. coli BL21(DE3), Ni-NTA purified
Assay: spectrophotometric NADPH oxidation at […] nm
Format: biochemical
Conditions: 0.7 mM 2-Kiv, 50 mM sodium phosphate pH 7.0, 35 °C

T1 sequence (I3VQI5 entry or part of it): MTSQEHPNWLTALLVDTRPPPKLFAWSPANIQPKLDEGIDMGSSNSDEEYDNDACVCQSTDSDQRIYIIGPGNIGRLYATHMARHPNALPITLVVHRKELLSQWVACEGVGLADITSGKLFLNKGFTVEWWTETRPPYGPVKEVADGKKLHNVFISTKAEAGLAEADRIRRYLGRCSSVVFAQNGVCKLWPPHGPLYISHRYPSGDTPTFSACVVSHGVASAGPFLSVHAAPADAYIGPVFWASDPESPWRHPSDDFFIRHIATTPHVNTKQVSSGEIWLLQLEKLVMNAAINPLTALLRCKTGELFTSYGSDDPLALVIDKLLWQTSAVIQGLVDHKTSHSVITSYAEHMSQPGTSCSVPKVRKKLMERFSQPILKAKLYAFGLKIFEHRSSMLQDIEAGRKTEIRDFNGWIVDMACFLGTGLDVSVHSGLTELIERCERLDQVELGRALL

Row | SMILES | spectrophotometric NADPH oxidation at 340 nm | spectrophotometric NADPH oxidation at 340 nm (0.29 mM NADPH)
1 | NC(=O)C1=CN([C@@H]2O[C@H](COP(=O)(O)OP(=O)(O)OC[C@H]3O[C@@H](n4cnc5c(N)ncnc54)[C@H](OP(=O)(O)O)[C@@H]3O)[C@@H](O)[C@H]2O)C=CC1 [NADPH] | KivRFp showed higher coenzyme specificity with respect to NADPH than NADH | 
2 | CC(C)C(=O)C(=O)O [2-Kiv] |  | The enzyme exhibited the highest activity towards 2-Kiv as substrate
